Measured values taken from PubChem BioAssay AID1845205 (Molecular Pharmacology Branch, DTP, NCI, 2023).
Several values for one entry are separate records, joined by “and”; a condition that tells them apart may be missing. Equal values may be shown once.

Test system: MPNST multicellular tumor spheroids, viability % test/control
Experiment: Anticancer human tumor MPNST cell line growth inhibition;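 note: spheroids exposed to agents for seven days after three days of growth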;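 for viability, T/C: luminescence signal used as surrogate for viable cell amount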
Conditions: for viability, T/C: stronger effect = lower value
Excerpt: Multicellular complex tumor spheroid response to DNA repair inhibitors in combination with DNA-damaging drugs
This study explores the anticancer activities of DNA-damaging drugs and inhibitors of DNA damage repair, both as single agents and in combinations. Complex tumor spheroids comprised of malignant cells, endothelial cells and mesenchymal stem cells served as an in vitro model for human solid tumors. This model system incorporates physiologically relevant features and patient-derived or established malignant cell lines with clinically relevant genetic alterations from many tumor types. Twenty-six patient-derived or established malignant cell lines were evaluated representing sarcoma, melanoma, small cell lung cancer (SCLC), non-small cell lung cancer (NSCLC), as well as bladder, ovarian and pancreatic cancers. The concentration ranges selected for each drug and investigational agent were based upon clinically achievable concentrations if the clinical Cmax of the agent was known.
Compounds. The drugs and compounds olaparib (NSC753686), talazoparib (NSC767125), berzosertib (NSC777718), elimusertib (NSC800525), nedisertib (NSC802822), VX-984 (NSC792969), AZD-1390 (NSC803789), temozolomide (NSC362856), topotecan (NSC609699), trabectedin (NSC813783), staurosporine (NSC755774), and gemcitabine (NSC613327) were obtained from the National Cancer Institute (NCI) Developmental Therapeutics Program Chemical Repository. The FDA-approved anticancer drug set is available from the Developmental Therapeutics Program at https://dtp.cancer.gov/organization/dscb/obtaining/available_plates.htm. […] The stock solutions were prepared in dimethyl sulfoxide (DMSO, Sigma-Aldrich, St. Louis, MO, cat. D2650) at 400-fold the tested concentration and stored at -70 degrees C. Prior to their use, the stock solutions were diluted in fresh medium and the final DMSO concentration in the assay was 0.25% (v/v). All drugs and investigational agents were tested over a range starting from a high concentration at or near the clinical Cmax and decreasing in half-log increments. If the clinical Cmax for an agent had not been determined, the highest concentration tested was 10 microM.
Cell Lines. The patient-derived cancer cell (PDC) lines: 156681-154-R-J1-PDC, 283228-195-R-J1-PDC, 287954-098-R-J1-PDC, 292921-168-R-J2-PDC, 349418-098-R-PDC, 425362-245-T-J1-PDC, 556581-035-R-J1-PDC, and BL0293-F563-PDC were received from the NCI Patient-Derived Models Repository (PDMR, https://pdmr.cancer.gov). The established cell lines HS-SY-2 (RRID:CVCL_8719), MPNST, and SYO-1 (RRID:CVCL_7146) were obtained from the Sloan Kettering Institute. The alveolar soft parts sarcoma cell line ASPS-1 (RRID:CVCL_S738) was established at the NCI and grown from internal seed stocks. The following established cell lines were purchased from the American Type Culture Collection (ATCC, Manassas, VA): G-401 (ATCC, cat. CRL-1441, RRID:CVCL_0270), SW982 (ATCC, cat. HTB-93, RRID:CVCL_1734), VA-ES-BJ (ATCC, cat. CRL-2138, RRID:CVCL_1785), NCI-H719 (ATCC, cat. CRL-5837, RRID:CVCL_1582), NCI-H196 (ATCC, cat. CRL-5823, RRID:CVCL_1509), NCI-H841 (ATCC, cat. CRL-5845, RRID:CVCL_1595), NCI-H1618 (ATCC, cat. CRL-5879, RRID:CVCL_1480), NCI-H1876 (ATCC, cat. CRL-5902, RRID:CVCL_1503), DMS 114 (ATCC, cat. CRL-2066; RRID:CVCL_1174), NCI-H211 (ATCC, cat. CRL-5824; RRID:CVCL_1529), and SW 1271 (ATCC, cat. CRL-2177, RRID:CVCL_1716). The small cell lung cancer cell line COR-L88 was purchased from Sigma-Aldrich (cat. 92031917-1VL, RRID:CVCL_1141). The non-small cell lung cancer cell lines NCI-H226 (RRID:CVCL_1544) and NCI-H322M (RRID:CVCL_1557) were established at the NCI and grown from internal seed stocks. Pooled donor human umbilical vein endothelial cells (HUVEC, Lonza, cat. CC-2519) and human mesenchymal stem cells (hMSC, Lonza, cat. PT-2501) were purchased from Lonza (Walkersville, MD).
Cell Culture. All cells were maintained in an incubator at 37 degrees C and 5% CO2 with 95% humidity. […]

[1] = curve of first compound, second compound 0.003 µM
[2] = second compound 0.003 µM, first compound 0.0316 µM
[3] = second compound 0.003 µM, first compound 0.1 µM
[4] = second compound 0.003 µM, first compound 0.316 µM
[5] = second compound 0.003 µM, first compound 1 µM
[6] = second compound 0.003 µM, first compound 3.16 µM
[7] = second compound 0.003 µM, first compound 10 µM

Cc1cc(C)c(CNC(=O)c2cc(-c3ccc(CN4CCOCC4)cc3)cc3c2cnn3C2CCCC2)c(=O)[nH]1 + CC[C@@]1(O)C(=O)OCc2c1cc1n(c2=O)Cc2cc3c(CN(C)C)c(O)ccc3nc2-1
IC50 [1]: > 10 µM
IC50 (curve of first compound, second compound 0.00949 µM): > 10 µM
IC50 (curve of first compound, second compound 0.03 µM): > 10 µM
IC50 (curve of first compound, second compound 0.0949 µM): > 10 µM
IC50 (curve of first compound, second compound 0.3 µM): < 0.0316 µM
viability, T/C [2]: 86%
viability, T/C [3]: 79.4%
viability, T/C [4]: 88.8%
viability, T/C [5]: 83.2%
viability, T/C [6]: 93.3%
viability, T/C [7]: 87.5%
viability, T/C (second compound 0.00949 µM, first compound 0.0316 µM): 80.3%
viability, T/C (second compound 0.00949 µM, first compound 0.1 µM): 70%
viability, T/C (second compound 0.00949 µM, first compound 0.316 µM): 91%
viability, T/C (second compound 0.00949 µM, first compound 1 µM): 71.4%
viability, T/C (second compound 0.00949 µM, first compound 3.16 µM): 76.1%
viability, T/C (second compound 0.00949 µM, first compound 10 µM): 78.9%
viability, T/C (second compound 0.03 µM, first compound 0.0316 µM): 55.4%
viability, T/C (second compound 0.03 µM, first compound 0.1 µM): 54.6%
viability, T/C (second compound 0.03 µM, first compound 0.316 µM): 50%
viability, T/C (second compound 0.03 µM, first compound 1 µM): 53%
viability, T/C (second compound 0.03 µM, first compound 3.16 µM): 58.2%
viability, T/C (second compound 0.03 µM, first compound 10 µM): 68.2%
viability, T/C (second compound 0.0949 µM, first compound 0.0316 µM): 51.8%
viability, T/C (second compound 0.0949 µM, first compound 0.1 µM): 52.1%
viability, T/C (second compound 0.0949 µM, first compound 0.316 µM): 51.1%
viability, T/C (second compound 0.0949 µM, first compound 1 µM): 52.4%
viability, T/C (second compound 0.0949 µM, first compound 3.16 µM): 50.3%
viability, T/C (second compound 0.0949 µM, first compound 10 µM): 58.3%
viability, T/C (second compound 0.3 µM, first compound 0.0316 µM): 41.7%
viability, T/C (second compound 0.3 µM, first compound 0.1 µM): 41%
viability, T/C (second compound 0.3 µM, first compound 0.316 µM): 43.2%
viability, T/C (second compound 0.3 µM, first compound 1 µM): 37.8%
viability, T/C (second compound 0.3 µM, first compound 3.16 µM): 42.6%
viability, T/C (second compound 0.3 µM, first compound 10 µM): 45.4%

CC(C)n1c(=O)n(C)c2cnc3cc(F)c(-c4ccc(OCCCN5CCCCC5)nc4)cc3c21
viability, T/C (compound 0.0316 µM): 116% and 75.2% and 95.3%
viability, T/C (compound 0.1 µM): 92% and 92.2% and 75.8%
viability, T/C (compound 0.316 µM): 105% and 84.5% and 144%
viability, T/C (compound 1 µM): 93.2% and 88.2% and 84.2%
viability, T/C (compound 3.16 µM): 92.5% and 85.4% and 72.3%
viability, T/C (compound 10 µM): 63.2% and 56.1% and 54.5%
IC50 (curve of compound): > 10 µM

[2H]c1nc(C)nc([2H])c1-c1cc(NC[C@@H](C)c2cccc3c(C(=O)NC)ccnc23)ncn1 + COc1cc2c(cc1O)CCNC21CSC2c3c(OC(C)=O)c(C)c4c(c3C(COC1=O)N1C(O)C3Cc5cc(C)c(OC)c(O)c5C(C21)N3C)OCO4
IC50 (curve of first compound, second compound 30 pM): > 10 µM
IC50 (curve of first compound, second compound 94.9 pM): > 10 µM
IC50 (curve of first compound, second compound 0.0003 µM): > 10 µM
IC50 (curve of first compound, second compound 0.000949 µM): < 0.0316 µM
IC50 [1]: < 0.0316 µM
viability, T/C (second compound 30 pM, first compound 0.0316 µM): 83.5%
viability, T/C (second compound 30 pM, first compound 0.1 µM): 71.4%
viability, T/C (second compound 30 pM, first compound 0.316 µM): 73.3%
viability, T/C (second compound 30 pM, first compound 1 µM): 97.6%
viability, T/C (second compound 30 pM, first compound 3.16 µM): 72.7%
viability, T/C (second compound 30 pM, first compound 10 µM): 88.1%
viability, T/C (second compound 94.9 pM, first compound 0.0316 µM): 94.4%
viability, T/C (second compound 94.9 pM, first compound 0.1 µM): 83%
viability, T/C (second compound 94.9 pM, first compound 0.316 µM): 81.6%
viability, T/C (second compound 94.9 pM, first compound 1 µM): 103%
viability, T/C (second compound 94.9 pM, first compound 3.16 µM): 99.9%
viability, T/C (second compound 94.9 pM, first compound 10 µM): 78.3%
viability, T/C (second compound 0.0003 µM, first compound 0.0316 µM): 78%
viability, T/C (second compound 0.0003 µM, first compound 0.1 µM): 75.8%
viability, T/C (second compound 0.0003 µM, first compound 0.316 µM): 72.5%
viability, T/C (second compound 0.0003 µM, first compound 1 µM): 95.7%
viability, T/C (second compound 0.0003 µM, first compound 3.16 µM): 75.8%
viability, T/C (second compound 0.0003 µM, first compound 10 µM): 87%
viability, T/C (second compound 0.000949 µM, first compound 0.0316 µM): 48.4%
viability, T/C (second compound 0.000949 µM, first compound 0.1 µM): 40.6%
viability, T/C (second compound 0.000949 µM, first compound 0.316 µM): 42.7%
viability, T/C (second compound 0.000949 µM, first compound 1 µM): 43.1%
viability, T/C (second compound 0.000949 µM, first compound 3.16 µM): 42.3%
viability, T/C (second compound 0.000949 µM, first compound 10 µM): 42.9%
viability, T/C [2]: 9.53%
viability, T/C [3]: 12.7%
viability, T/C [4]: 8.26%
viability, T/C [5]: 12.5%
viability, T/C [6]: 9.06%
viability, T/C [7]: 8.35%
